US6916906B1, “Polypeptides implicated in the expression of resistance to glycopeptides, in particular in gram-positive bacteria, nucleotide sequence coding for these polypeptides and use for diagnosis” (priority 1990, dated 2005)

Assays:
[1] = tested on: strain with a high level of resistance, in particular Gram-positive cocci; assay: MIC towards strains with a high level of resistance; assay type: cell-based
[2] = tested on: strains with low-level resistance; assay: MIC towards strains with low-level resistance; assay type: cell-based
E. gallinarum BM4174 = assay: Minimal inhibitory concentration of vancomycin for BM4174; assay type: cell-based; details: Enterococcus gallinarum, read-out: minimal inhibitory concentration
Protocol: (§1) The cultures were grown in brain-heart broth (BHI—Brain Heart Infusion Broth) or on agar at 37° C. The method of Steers et al (Antibiot. Chemother. Basel. 9: 307-311) was used to determine the minimal inhibitory concentrations (MICs) of the antibiotics on a Mueller-Hinton gelose agar medium.
(§2) In order to evaluate the contribution of vanC to resistance to vancomycin in E. gallinarum BM4174, the vanC gene was inactivated by insertion. […] The resulting pAT217 plasmid was introduced into BM4174 by electroporation (Cruz-Rodz et al., 1990, Mol. Gen. Genet. 224:152-154) and the clones supposed to result from a homologous recombination leading to the integration of pAT217 into vanC were selected on erythromycin. The clone BM4175 was compared with BM4174 by Southern hybridization using the probe C and aphA-3 specific for pAT114. The two probes hybridized with the EcoRI fragment of 8.6 kb from BM4175.

BM4175 = assay: Minimal inhibitory concentration of vancomycin for BM4175 (vanC inactivated by insertion); assay type: cell-based; details: Enterococcus gallinarum; BM4175, pAT217 integrated into vanC
Protocol: as §1, §2

E. faecalis JH2-2 = assay: MIC after inactivation of vanS by insertion in plasmid pAT80; assay type: cell-based, Enterococcus faecalis; details: inactivation of vanS in pAT80, compared with pAT80
Text: The restriction fragments of pIP816 (Tra^−, Mob^+, Vm^r) were cloned in derivatives of the vector pAT29 which constitutes a shuttle vector between the Gram-positive and Gram-negative bacteria (oriR pAMβ1, oriR pUC, oriT RK2, spc, lacZ) (Trieu-Cuot et al., 1990, Nucleic Acids Res. 18:4296). This vector was constructed by the inventors and used to transform the strain E. coli JM103 ((lac-proAB), supE, thi, strA, sbcB15, endA, hspR4, F traD36, proAB, LacI^q, lacZ M15) (Messing et al., 1983, Methods Ezymol. 101:20-78). The plasmid DNA was prepared by an alkaline lysis protocol on a small scale (Sambrook et al., 1982, Molecular cloning, a laboratory manual. Cold Spring Harbor Laboratory, Cold Spring Harbor N.Y.) and introduced by electroporation (Cruz-Rodz A. L. et al., 1990, Mol. Gen. Genet. 224: 152-154) in E. faecalis JH2-2 (Fus^R, Rif^R) (Jacob A. E. et al., 1974, J. Bacteriol. 117: 360-372), by using a Gene Pulser apparatus (Bio-Rad Laboratories, Richmond, Calif.). The restriction profiles of the purified plasmids from E. faecalis and E. coli were compared in order to detect possible rearrangements of DNA.
The cultures were grown in brain-heart broth (BHI—Brain Heart Infusion Broth) or on agar at 37° C. […]

teicoplanin
minimal inhibitory concentrations (MIC) ([1]; strains with a high level of resistance (definition)): > 8 µg/mL | sensitivity of the strains [2]: apparently sensitive

CN[C@H](CC(C)C)C(=O)N[C@H]1C(=O)N[C@@H](CC(N)=O)C(=O)N[C@H]2C(=O)N[C@H]3C(=O)N[C@H](C(=O)N[C@H](C(=O)O)c4cc(O)cc(O)c4-c4cc3ccc4O)[C@H](O)c3ccc(c(Cl)c3)Oc3cc2cc(c3O[C@@H]2O[C@H](CO)[C@@H](O)[C@H](O)[C@H]2O[C@H]2C[C@](C)(N)[C@H](O)[C@H](C)O2)Oc2ccc(cc2Cl)[C@H]1O [vancomycin]
MIC (E. gallinarum BM4174): 16 µg/mL | MIC (BM4175): 2 µg/mL | MIC ([1]; read-out: minimal inhibitory concentrations (MIC)): > 32 µg/mL | change of minimal inhibitory concentration (MIC) (E. faecalis JH2-2): remains unchanged

O=C(N[C@H](CO)[C@H](O)c1ccc([N+](=O)[O-])cc1)C(Cl)Cl [chloramphenicol]
change of minimal inhibitory concentration (MIC) (E. faecalis JH2-2): two-fold reduction
